Measurements: US12643871B2, “Aryl formamide compound containing chiral sulfur oxide or salt thereof, preparation method, herbicidal composition and use thereof” (Qingdao Kingagroot Chemical Compound Co., Ltd., priority 2019, dated 2026)

Assays:
Assay type in all cases: in vivo
rice and other crops = assay: Comparison experiment (post-emergence, Tables 4-7), crop safety; details: dose of 125, 60, 30, 15 g/ha
Source text: (§1) The above growth control rates are fresh weight control rates.
(§2) Experiment on weeding effect in post-emergence stage: monocotyledonous and dicotyledonous weed seeds (Descurainia sophia, Capsella bursa-pastoris, Galium aparine, Stellaria media, Lithospermum arvense, Rorippa indica, Alopecurus aequalis, Beckmannia syzigachne, Sclerochloa dura, Phleum paniculatum, Bromus japonicus, Aegilops tauschii, Phalaris arundinacea, Amaranthus retroflexus, Chenopodiaceae, Commelina communis, Sonchus arvensis, convolvulus arvensis, Cirsium setosum, Solanum nigrum, Acalypha australis, Digitaria sanguinalis, Echinochloa crusgalli, Setaria viridis, Setaria glauca, Leptochloa chinensis, Monochoria vaginalis, Sagittaria trifolia, Scirpus juncoides, Cyperus rotundus, Cyperus iria, Cyperus difformis, Fimbristylis, Portulaca oleracea, Xanthium sibiricum, Pharbitis nil) and major crop seeds (wheat, corn, rice, soybean, cotton, oilseed rape, millet, sorghum, potato, sesame, ricinus) were placed in plastic pots filled with soil, then covered with 0.5-2 cm of soil, allowed to grow in a good greenhouse environment. After 2 weeks of sowing, the test plants were treated in the 2 leaf stage. The tested compounds of the present invention were respectively dissolved in acetone, then added with Tween 80 and 1.5 liter/ha of emulsifiable concentrate of methyl oleate as synergist, diluted with a certain amount of water to obtain a solution with a certain concentration, and sprayed with a spray tower onto the plants. After the application, the plants were cultured for 15 days in the greenhouse, and then the experimental results of the weeding were counted. The doses of the used compounds were 500, 250, 125, 60, 30, 15 g/ha, and the averages were obtained by repeating for three times.
(§3) If there is no clear marker, the post-seedling test conditions are the same as above, and the experimental results are shown in Tables 4-7.

[1] = tested on: key weeds such as Digitaria sanguinalis, Leptochloa chinensis; assay: Comparison experiment (post-emergence, Tables 4-7), herbicidal activity on weeds not listed separately; details: for activity to key weeds such as Digitaria sanguinalis, Leptochloa chinensis compared with the corresponding racemate or S configuration: dose of 125, 60, 30, 15 g/ha
Source text: as §1, §2, §3

Echinochloa crusgali = assay: Weeding effect in post-emergence stage; details: 250 g/ha; 2 leaf stage; 15 days after application; fresh weight control rate
Summary of the method: (§4)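 Pot-grown weeds sprayed post-emergence at the 2-leaf stage, 2 weeks after sowing, with compound in acetone/Tween 80 plus 1.5 L/ha methyl oleate concentrate at 500–15 g/ha. Fresh-weight growth control scored after 15 days in greenhouse, mean of three replicates, graded levels 0–5 (5: >85%, 0: <5%).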

Amaranthus retroflexus = assay: Weeding effect in post-emergence stage; details: 250 g/ha; 2 leaf stage; 15 days after application; fresh weight control rate
Summary of the method: as §4

Setaria viridis = assay: Weeding effect in post-emergence stage; details: 250 g/ha; 2 leaf stage; 15 days after application; fresh weight control rate
Summary of the method: as §4

Digitaria sanguinalis = assay: Weeding effect in post-emergence stage; details: 250 g/ha; 2 leaf stage; 15 days after application; fresh weight control rate
Summary of the method: as §4

Abutilon theophrasti = assay: Weeding effect in post-emergence stage; details: 250 g/ha; 2 leaf stage; 15 days after application; fresh weight control rate
Summary of the method: as §4

Cc1nnc(NC(=O)c2ccc(C(F)(F)F)c([S@+]([O-])CC3COC3)c2F)o1 [Compound 80] was tested, and the “safety to rice and other crops compared with the corresponding racemate or S configuration” value (rice and other crops) was “higher safety”, the “activity to key weeds such as Digitaria sanguinalis, Leptochloa chinensis compared with the corresponding racemate or S configuration” value [1] was “better activity” and the “weeding effect in post-emergence stage, activity level (growth control rate), Echinochloa crusgali” value (“weeding effect … Echinochloa crusgali” below) (Echinochloa crusgali) was 5 (Level 5: growth control rate is above 85%). The “weeding effect in post-emergence stage, activity level (growth control rate), Amaranthus retroflexus” value (“weeding effect … Amaranthus retroflexus” for short) (Amaranthus retroflexus) was 5 (Level 5: growth control rate is above 85%).

In the case of CC[S@@+]([O-])c1c(C(F)(F)F)ccc(C(=O)N(c2nnc(C)o2)C(C)OC(=O)OC)c1F (stereo partly drawn) [Compound 248], the “safety to rice and other crops compared with the corresponding racemate or S configuration” value (rice and other crops) is reported as “higher safety”, the “activity to key weeds such as Digitaria sanguinalis, Leptochloa chinensis compared with the corresponding racemate or S configuration” value [1] is reported as “better activity” and the “weeding effect … Echinochloa crusgali” value (Echinochloa crusgali) is reported as 5 (Level 5: growth control rate is above 85%). The “weeding effect … Amaranthus retroflexus” value (Amaranthus retroflexus) was 5 (Level 5: growth control rate is above 85%).

With COc1c(C(=O)Nc2nnc(C)o2)ccc(C(F)(F)F)c1[S@+]([O-])CCON=C(C)C [Compound 348] the “herbicidal activity and/or crop safety compared with the corresponding racemate or S configuration” value ([1]; no dose stated) was “better herbicidal activity and/or crop safety”, the “weeding effect … Echinochloa crusgali” value (Echinochloa crusgali) was 5 (Level 5: growth control rate is above 85%) and the “weeding effect in post-emergence stage, activity level (growth control rate), Setaria viridis” value (“weeding effect … Setaria viridis” below) (Setaria viridis) was 5 (Level 5: growth control rate is above 85%). For the same compound, the “weeding effect in post-emergence stage, activity level (growth control rate), Digitaria sanguinalis” value (from here on “weeding effect … Digitaria sanguinalis”) (Digitaria sanguinalis) was 5 (Level 5: growth control rate is above 85%), the “weeding effect … Amaranthus retroflexus” value (Amaranthus retroflexus) was 5 (Level 5: growth control rate is above 85%) and the “weeding effect in post-emergence stage, activity level (growth control rate), Abutilon theophrasti” value (“weeding effect … Abutilon theophrasti” for short) (Abutilon theophrasti) was 5 (Level 5: growth control rate is above 85%).

With CCCC[S@@+]([O-])c1c(C(F)(F)F)ccc(C(=O)Nc2nnc(C)o2)c1SC [Compound 550] the “herbicidal activity and/or crop safety compared with the corresponding racemate or S configuration” value ([1]; dose of 120, 48, 30, 24 g/ha) was “better herbicidal activity and/or crop safety”, the “weeding effect … Echinochloa crusgali” value (Echinochloa crusgali) was 5 (Level 5: growth control rate is above 85%) and the “weeding effect … Setaria viridis” value (Setaria viridis) was 5 (Level 5: growth control rate is above 85%). For the same compound, the “weeding effect … Digitaria sanguinalis” value (Digitaria sanguinalis) was 5 (Level 5: growth control rate is above 85%), the “weeding effect … Amaranthus retroflexus” value (Amaranthus retroflexus) was 5 (Level 5: growth control rate is above 85%) and the “weeding effect … Abutilon theophrasti” value (Abutilon theophrasti) was 5 (Level 5: growth control rate is above 85%).

In the case of CCC[S@@+]([O-])c1c(C(F)(F)F)ccc(C(=O)Nc2nnnn2C)c1F [Compound 379], the “herbicidal activity and/or crop safety compared with the corresponding racemate or S configuration” value ([1]; doses of 125, 60, 30, 15 g/ha, X replaced by other five membered rings) is reported as “better herbicidal activity and/or crop safety”, the “weeding effect … Echinochloa crusgali” value (Echinochloa crusgali) is reported as 5 (Level 5: growth control rate is above 85%) and the “weeding effect … Setaria viridis” value (Setaria viridis) is reported as 5 (Level 5: growth control rate is above 85%). The “weeding effect … Digitaria sanguinalis” value (Digitaria sanguinalis) was 5 (Level 5: growth control rate is above 85%), the “weeding effect … Amaranthus retroflexus” value (Amaranthus retroflexus) was 5 (Level 5: growth control rate is above 85%) and the “weeding effect … Abutilon theophrasti” value (Abutilon theophrasti) was 5 (Level 5: growth control rate is above 85%).

CCCC[S@@+]([O-])c1c(C(F)(F)F)ccc(C(=O)Nc2nnc(C)o2)c1OC [Compound 308] was tested, and the “herbicidal activity and/or crop safety compared with the corresponding racemate or S configuration” value ([1]; no dose stated) was “better herbicidal activity and/or crop safety”, the “weeding effect … Echinochloa crusgali” value (Echinochloa crusgali) was 5 (Level 5: growth control rate is above 85%) and the “weeding effect … Setaria viridis” value (Setaria viridis) was 5 (Level 5: growth control rate is above 85%). The “weeding effect … Digitaria sanguinalis” value (Digitaria sanguinalis) was 5 (Level 5: growth control rate is above 85%), the “weeding effect … Amaranthus retroflexus” value (Amaranthus retroflexus) was 5 (Level 5: growth control rate is above 85%) and the “weeding effect … Abutilon theophrasti” value (Abutilon theophrasti) was 5 (Level 5: growth control rate is above 85%).

For COc1c(C(=O)Nc2nnc(C)o2)ccc(C(F)(F)F)c1[S@+]([O-])CC(C)F (stereo partly drawn) [Compound 321], the “herbicidal activity and/or crop safety compared with the corresponding racemate or S configuration” value ([1]; no dose stated) was “better herbicidal activity and/or crop safety”, the “weeding effect … Echinochloa crusgali” value (Echinochloa crusgali) was 5 (Level 5: growth control rate is above 85%) and the “weeding effect … Setaria viridis” value (Setaria viridis) was 5 (Level 5: growth control rate is above 85%). The “weeding effect … Digitaria sanguinalis” value (Digitaria sanguinalis) was 5 (Level 5: growth control rate is above 85%), the “weeding effect … Amaranthus retroflexus” value (Amaranthus retroflexus) was 5 (Level 5: growth control rate is above 85%) and the “weeding effect … Abutilon theophrasti” value (Abutilon theophrasti) was 5 (Level 5: growth control rate is above 85%).

In the case of C=CC[S@@+]([O-])c1c(C(F)(F)F)ccc(C(=O)Nc2nnc(C)o2)c1OC [Compound 311], the “herbicidal activity and/or crop safety compared with the corresponding racemate or S configuration” value ([1]; no dose stated) is reported as “better herbicidal activity and/or crop safety”, the “weeding effect … Echinochloa crusgali” value (Echinochloa crusgali) is reported as 5 (Level 5: growth control rate is above 85%) and the “weeding effect … Setaria viridis” value (Setaria viridis) is reported as 5 (Level 5: growth control rate is above 85%). The “weeding effect … Digitaria sanguinalis” value (Digitaria sanguinalis) was 5 (Level 5: growth control rate is above 85%), the “weeding effect … Amaranthus retroflexus” value (Amaranthus retroflexus) was 5 (Level 5: growth control rate is above 85%) and the “weeding effect … Abutilon theophrasti” value (Abutilon theophrasti) was 5 (Level 5: growth control rate is above 85%).

For CSc1c(C(=O)Nc2nnc(C)o2)ccc(C(F)(F)F)c1[S@+]([O-])CCCF [Compound 559], the “herbicidal activity and/or crop safety compared with the corresponding racemate or S configuration” value ([1]; dose of 120, 48, 30, 24 g/ha) was “better herbicidal activity and/or crop safety”, the “weeding effect … Echinochloa crusgali” value (Echinochloa crusgali) was 5 (Level 5: growth control rate is above 85%) and the “weeding effect … Setaria viridis” value (Setaria viridis) was 5 (Level 5: growth control rate is above 85%). For the same compound, the “weeding effect … Digitaria sanguinalis” value (Digitaria sanguinalis) was 5 (Level 5: growth control rate is above 85%), the “weeding effect … Amaranthus retroflexus” value (Amaranthus retroflexus) was 5 (Level 5: growth control rate is above 85%) and the “weeding effect … Abutilon theophrasti” value (Abutilon theophrasti) was 5 (Level 5: growth control rate is above 85%).

In the case of CSc1c(C(=O)Nc2nnc(C)o2)ccc(C(F)(F)F)c1[S@+]([O-])CC1CC1 [Compound 554], the “herbicidal activity and/or crop safety compared with the corresponding racemate or S configuration” value ([1]; dose of 120, 48, 30, 24 g/ha) is reported as “better herbicidal activity and/or crop safety”, the “weeding effect … Echinochloa crusgali” value (Echinochloa crusgali) is reported as 5 (Level 5: growth control rate is above 85%) and the “weeding effect … Setaria viridis” value (Setaria viridis) is reported as 5 (Level 5: growth control rate is above 85%). The “weeding effect … Digitaria sanguinalis” value (Digitaria sanguinalis) was 5 (Level 5: growth control rate is above 85%), the “weeding effect … Amaranthus retroflexus” value (Amaranthus retroflexus) was 5 (Level 5: growth control rate is above 85%) and the “weeding effect … Abutilon theophrasti” value (Abutilon theophrasti) was 5 (Level 5: growth control rate is above 85%).

Cc1nnc(NC(=O)c2ccc(C(F)(F)F)c([S@+]([O-])Cc3cn(C)nc3C)c2F)o1 [Compound 184] was tested, and the “safety to rice and other crops compared with the corresponding racemate or S configuration” value (rice and other crops) was “higher safety”, the “activity to key weeds such as Digitaria sanguinalis, Leptochloa chinensis compared with the corresponding racemate or S configuration” value [1] was “better activity” and the “weeding effect … Echinochloa crusgali” value (Echinochloa crusgali) was 5 (Level 5: growth control rate is above 85%). The “weeding effect … Amaranthus retroflexus” value (Amaranthus retroflexus) was 5 (Level 5: growth control rate is above 85%).

C=CC[S@@+]([O-])c1c(C(F)(F)F)ccc(C(=O)Nc2nnc(C)o2)c1SC [Compound 552] was tested, and the “herbicidal activity and/or crop safety compared with the corresponding racemate or S configuration” value ([1]; dose of 120, 48, 30, 24 g/ha) was “better herbicidal activity and/or crop safety”, the “weeding effect … Echinochloa crusgali” value (Echinochloa crusgali) was 5 (Level 5: growth control rate is above 85%) and the “weeding effect … Setaria viridis” value (Setaria viridis) was 5 (Level 5: growth control rate is above 85%). For the same compound, the “weeding effect … Digitaria sanguinalis” value (Digitaria sanguinalis) was 5 (Level 5: growth control rate is above 85%), the “weeding effect … Amaranthus retroflexus” value (Amaranthus retroflexus) was 5 (Level 5: growth control rate is above 85%) and the “weeding effect … Abutilon theophrasti” value (Abutilon theophrasti) was 5 (Level 5: growth control rate is above 85%).
